Patent US7326790B2, “Diphenylisoxazole compounds and hydro isomers thereof” (Rigel Pharmaceuticals, Inc., priority 2003, dated 2008)

Tested on: HCV replicon (5-2 Luc replicon-comprising cells)
Assay: HCV replicon assay (luciferase)
Format: cell-based
Details: Hepatitis C virus; 5-2 Luc replicon cells, 24 hours with compound, luciferase activity
Source text: In one embodiment, the inhibitory activity of the compounds can be confirmed in a replicon assay that assesses the ability of a test compound to block or inhibit HCV replication in replicon cells. One example of a suitable replicon assay is the liver cell-line Huh 7-based replicon assay described in Lohmann et al., 1999, Science 285:110-113. A specific example of this replicon assay which utilizes luciferase translation is provided in the Examples Section. In one embodiment of this assay, the amount of test compound that yields a 50% reduction in translation as compared to a control cell (IC50) may be determined.
The inhibitory activity of certain exemplary compounds of the invention was confirmed using an HCV replicon assay. The HCV replicon can include such features as the HCV 5′ untranslated region including the HCV IRES, the HCV 3′ untranslated region, selected HCV genes encoding HCV polypeptides, selectable markers, and a reporter gene such as luciferase, GFP, etc. In the assay, actively dividing 5-2 Luc replicon-comprising cells (obtained from Ralf Bartenschlager; see Lohmann et al., 1999, Science 285:110-113) were seeded at a density of between about 5,000 and 7,500 cells/well onto 96 well plates (about 90 μl of cells per well) and incubated at 37° C. and 5% CO2 for 24 hours. Then, the test compound (in a volume of about 10 μl) was added to the wells at various concentrations and the cells were incubated for an additional 24 hours before luciferase assay. Briefly, the Bright-Glo reagent was diluted 1:1 with PBS and 100 μl of diluted reagent was added to each well. After 5 min of incubation at room temperature, luciferin emission was quantified with a luminometer. In this assay, the amount of test compound that yielded a 50% reduction in luciferase activity (IC50) was determined.

Compound	IC50
O=C(Nc1cccc(-c2cc(-c3c(Cl)cccc3Cl)on2)c1)C(Cl)Cl [Compound 39, 2,2-Dichloro-N-[3-[5-(2,6-dichlorophenyl)-3-isoxazolyl]phenyl]Acetamide]	< 10 µM
O=C(Nc1ccc(-c2cc(-c3ccccc3Cl)no2)cc1)C(Cl)Cl [Compound 55, 2,2-Dichloro-N-[4-[3-(2-chlorophenyl)-5-isoxazolyl]phenyl]Acetamide]	≤ 10 µM
O=C(Nc1ccc(-c2cc(-c3c(F)cccc3F)no2)cc1)C(Cl)Cl [Compound 59, 2,2-Dichloro-N-[4-[3-(2,6-difluorophenyl)-5-isoxazolyl]phenyl]Acetamide]	≤ 10 µM
